Measurements from patent US10253052B2, “HBED-bisphosphonates, radiometal conjugates and their use as theranostic agents” (Five Eleven Pharma Inc., priority 2015, dated 2019).

Tests used:
[1] = In vivo biodistribution in mice; design: species or system normal CD-1 male mice; details: for bone to blood ratio / bone to muscle ratio / Biodistribution: Blood / Biodistribution: Bone / Biodistribution: Brain / Biodistribution: Heart / Biodistribution: Kidney / Biodistribution: Liver / Biodistribution: Lung / Biodistribution: Muscle / Biodistribution: Pancreas / Biodistribution: Skin / Biodistribution: Spleen: iv
Procedure, shortened: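 Uptake values are % injected dose per gram of wet tissue, from gamma counting of weighed organs with tibia plus femur taken as bone. Tracers (20-30 μCi per animal) were given i.v. to healthy male CD-1 mice (25-30 g), with sacrifice at 2, 30, 60 and 120 min post injection.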

[2] = In vitro binding to hydroxyapatite; details: 20 mg hydroxyapatite in saline, 10 min at room temperature
Procedure, shortened: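 Binding is given as the percentage of ^68Ga activity retained by hydroxyapatite, measured by gamma counting of the solid versus the pooled supernatant and saline washes. The tracer (1 μCi) was exposed for 10 min at room temperature to hydroxyapatite pre-soaked 24 h in isotonic saline.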

O=C([O-])CN(CCN(CC(=O)[O-])Cc1cc(CCC(=O)NC(P(=O)(O)O)P(=O)(O)O)ccc1[O-])Cc1cc(CCC(=O)NCCCNC(=O)CCc2ccc(O)c(CN(CCN(CC(=O)O)Cc3cc(CCC(=O)NC(P(=O)(O)O)P(=O)(O)O)ccc3O)CC(=O)O)c2)ccc1[O-].[68Ga+3] [[^68Ga]3]
bone to blood ratio ([1]; 2 min): 0.5
bone to muscle ratio ([1]; 2 min): 2.6
Biodistribution: Blood ([1]; 2 min post injection): 8.33 ± 0.23 % dose/g
Biodistribution: Bone ([1]; 2 min post injection): 4.17 ± 0.35 % dose/g
Biodistribution: Brain ([1]; 2 min post injection): 0.28 ± 0.03 % dose/g
Biodistribution: Heart ([1]; 2 min post injection): 3.45 ± 0.25 % dose/g
Biodistribution: Kidney ([1]; 2 min post injection): 12.2 ± 1.51 % dose/g
Biodistribution: Liver ([1]; 2 min post injection): 19.7 ± 1.05 % dose/g
Biodistribution: Lung ([1]; 2 min post injection): 71.6 ± 6.33 % dose/g
Biodistribution: Muscle ([1]; 2 min post injection): 1.62 ± 0.47 % dose/g
Biodistribution: Pancreas ([1]; 2 min post injection): 1.73 ± 0.08 % dose/g
Biodistribution: Skin ([1]; 2 min post injection): 1.24 ± 0.01 % dose/g
Biodistribution: Spleen ([1]; 2 min post injection): 12.8 ± 4.35 % dose/g
bone to blood ratio ([1]; 30 min): 4.8
bone to muscle ratio ([1]; 30 min): 14
Biodistribution: Blood ([1]; 30 min (0.5 hr) post injection): 1.92 ± 0.15 % dose/g
Biodistribution: Bone ([1]; 30 min (0.5 hr) post injection): 9.26 ± 1.45 % dose/g
Biodistribution: Brain ([1]; 30 min (0.5 hr) post injection): 0.06 ± 0.01 % dose/g
Biodistribution: Heart ([1]; 30 min (0.5 hr) post injection): 2.02 ± 0.97 % dose/g
Biodistribution: Kidney ([1]; 30 min (0.5 hr) post injection): 17.1 ± 0.70 % dose/g
Biodistribution: Liver ([1]; 30 min (0.5 hr) post injection): 9.86 ± 0.66 % dose/g
Biodistribution: Lung ([1]; 30 min (0.5 hr) post injection): 15.6 ± 1.39 % dose/g
Biodistribution: Muscle ([1]; 30 min (0.5 hr) post injection): 0.68 ± 0.09 % dose/g
Biodistribution: Pancreas ([1]; 30 min (0.5 hr) post injection): 1.07 ± 1.04 % dose/g
Biodistribution: Skin ([1]; 30 min (0.5 hr) post injection): 1.10 ± 0.18 % dose/g
Biodistribution: Spleen ([1]; 30 min (0.5 hr) post injection): 8.33 ± 2.22 % dose/g
bone to blood ratio ([1]; 60 min): 13
bone to muscle ratio ([1]; 60 min): 16
Biodistribution: Blood ([1]; 60 min (1 hr) post injection): 0.70 ± 0.13 % dose/g
Biodistribution: Bone ([1]; 60 min (1 hr) post injection): 9.26 ± 1.13 % dose/g
Biodistribution: Brain ([1]; 60 min (1 hr) post injection): 0.06 ± 0.01 % dose/g
Biodistribution: Heart ([1]; 60 min (1 hr) post injection): 1.16 ± 0.13 % dose/g
Biodistribution: Kidney ([1]; 60 min (1 hr) post injection): 7.99 ± 1.08 % dose/g
Biodistribution: Liver ([1]; 60 min (1 hr) post injection): 23.5 ± 3.13 % dose/g
Biodistribution: Lung ([1]; 60 min (1 hr) post injection): 41.3 ± 5.15 % dose/g
Biodistribution: Muscle ([1]; 60 min (1 hr) post injection): 0.57 ± 0.14 % dose/g
Biodistribution: Pancreas ([1]; 60 min (1 hr) post injection): 0.26 ± 0.02 % dose/g
Biodistribution: Skin ([1]; 60 min (1 hr) post injection): 0.41 ± 0.02 % dose/g
Biodistribution: Spleen ([1]; 60 min (1 hr) post injection): 10.3 ± 2.65 % dose/g
bone to blood ratio ([1]; 120 min): 29
bone to muscle ratio ([1]; 120 min): 39
Biodistribution: Blood ([1]; 120 min post injection): 0.37 ± 0.07 % dose/g
Biodistribution: Bone ([1]; 120 min post injection): 10.6 ± 0.85 % dose/g
Biodistribution: Brain ([1]; 120 min post injection): 0.05 ± 0.01 % dose/g
Biodistribution: Heart ([1]; 120 min post injection): 1.05 ± 0.11 % dose/g
Biodistribution: Kidney ([1]; 120 min post injection): 8.99 ± 0.20 % dose/g
Biodistribution: Liver ([1]; 120 min post injection): 25.4 ± 2.80 % dose/g
Biodistribution: Lung ([1]; 120 min post injection): 34.8 ± 1.90 % dose/g
Biodistribution: Muscle ([1]; 120 min post injection): 0.28 ± 0.04 % dose/g
Biodistribution: Pancreas ([1]; 120 min post injection): 0.25 ± 0.03 % dose/g
Biodistribution: Skin ([1]; 120 min post injection): 0.33 ± 0.06 % dose/g
Biodistribution: Spleen ([1]; 120 min post injection): 15.7 ± 1.59 % dose/g
Biodistribution result in words (organ uptake, retention, excretion) ([1]; normal mice after iv injection): high liver uptake and less bone localization
Hydroxyapatite Binding (%) [2]: 95.8 ± 0.1%

O=C([O-])CN(CCN(CC(=O)[O-])Cc1cc(CCC(=O)O)ccc1[O-])Cc1cc(CCC(=O)O)ccc1[O-].[68Ga+3] [[^68Ga]HBED-CC, reference compound]
bone to blood ratio ([1]; 2 min): 0.2
bone to muscle ratio ([1]; 2 min): 0.8
Biodistribution: Blood ([1]; 2 min post injection): 7.66 ± 0.75 % dose/g
Biodistribution: Bone ([1]; 2 min post injection): 1.85 ± 0.05 % dose/g
Biodistribution: Brain ([1]; 2 min post injection): 0.29 ± 0.08 % dose/g
Biodistribution: Heart ([1]; 2 min post injection): 2.74 ± 0.34 % dose/g
Biodistribution: Kidney ([1]; 2 min post injection): 27.2 ± 0.64 % dose/g
Biodistribution: Liver ([1]; 2 min post injection): 1.75 ± 0.08 % dose/g
Biodistribution: Lung ([1]; 2 min post injection): 4.27 ± 0.34 % dose/g
Biodistribution: Muscle ([1]; 2 min post injection): 2.30 ± 0.13 % dose/g
Biodistribution: Pancreas ([1]; 2 min post injection): 1.60 ± 0.12 % dose/g
Biodistribution: Skin ([1]; 2 min post injection): 3.18 ± 0.43 % dose/g
Biodistribution: Spleen ([1]; 2 min post injection): 1.69 ± 0.18 % dose/g
bone to blood ratio ([1]; 30 min): 0.3
bone to muscle ratio ([1]; 30 min): 0.9
Biodistribution: Blood ([1]; 30 min (0.5 hr) post injection): 0.83 ± 0.09 % dose/g
Biodistribution: Bone ([1]; 30 min (0.5 hr) post injection): 0.28 ± 0.06 % dose/g
Biodistribution: Brain ([1]; 30 min (0.5 hr) post injection): 0.04 ± 0.01 % dose/g
Biodistribution: Heart ([1]; 30 min (0.5 hr) post injection): 0.34 ± 0.06 % dose/g
Biodistribution: Kidney ([1]; 30 min (0.5 hr) post injection): 3.22 ± 0.41 % dose/g
Biodistribution: Liver ([1]; 30 min (0.5 hr) post injection): 0.38 ± 0.08 % dose/g
Biodistribution: Lung ([1]; 30 min (0.5 hr) post injection): 0.58 ± 0.07 % dose/g
Biodistribution: Muscle ([1]; 30 min (0.5 hr) post injection): 0.32 ± 0.06 % dose/g
Biodistribution: Pancreas ([1]; 30 min (0.5 hr) post injection): 0.26 ± 0.01 % dose/g
Biodistribution: Skin ([1]; 30 min (0.5 hr) post injection): 0.64 ± 0.08 % dose/g
Biodistribution: Spleen ([1]; 30 min (0.5 hr) post injection): 0.26 ± 0.04 % dose/g
bone to blood ratio ([1]; 60 min): 1.7
bone to muscle ratio ([1]; 60 min): 2.3
Biodistribution: Blood ([1]; 60 min (1 hr) post injection): 0.14 ± 0.04 % dose/g
Biodistribution: Bone ([1]; 60 min (1 hr) post injection): 0.25 ± 0.16 % dose/g
Biodistribution: Brain ([1]; 60 min (1 hr) post injection): 0.02 ± 0.01 % dose/g
Biodistribution: Heart ([1]; 60 min (1 hr) post injection): 0.17 ± 0.11 % dose/g
Biodistribution: Kidney ([1]; 60 min (1 hr) post injection): 0.91 ± 0.32 % dose/g
Biodistribution: Liver ([1]; 60 min (1 hr) post injection): 0.11 ± 0.02 % dose/g
Biodistribution: Lung ([1]; 60 min (1 hr) post injection): 0.19 ± 0.04 % dose/g
Biodistribution: Muscle ([1]; 60 min (1 hr) post injection): 0.11 ± 0.04 % dose/g
Biodistribution: Pancreas ([1]; 60 min (1 hr) post injection): 0.13 ± 0.05 % dose/g
Biodistribution: Skin ([1]; 60 min (1 hr) post injection): 0.09 ± 0.07 % dose/g
Biodistribution: Spleen ([1]; 60 min (1 hr) post injection): 0.12 ± 0.02 % dose/g
bone to blood ratio ([1]; 120 min): 12
bone to muscle ratio ([1]; 120 min): 3.3
Biodistribution: Blood ([1]; 120 min post injection): 0.01 ± 0.00 % dose/g
Biodistribution: Bone ([1]; 120 min post injection): 0.18 ± 0.06 % dose/g
Biodistribution: Brain ([1]; 120 min post injection): 0.02 ± 0.00 % dose/g
Biodistribution: Heart ([1]; 120 min post injection): 0.09 ± 0.00 % dose/g
Biodistribution: Kidney ([1]; 120 min post injection): 0.08 ± 0.05 % dose/g
Biodistribution: Liver ([1]; 120 min post injection): 0.04 ± 0.02 % dose/g
Biodistribution: Lung ([1]; 120 min post injection): 0.07 ± 0.02 % dose/g
Biodistribution: Muscle ([1]; 120 min post injection): 0.05 ± 0.02 % dose/g
Biodistribution: Pancreas ([1]; 120 min post injection): 0.07 ± 0.01 % dose/g
Biodistribution: Skin ([1]; 120 min post injection): 0.03 ± 0.01 % dose/g
Biodistribution: Spleen ([1]; 120 min post injection): 0.13 ± 0.03 % dose/g
Hydroxyapatite Binding (%) [2]: 0.4±0.1%
